According to PMC5365662, “A Short Double-Stapled Peptide Inhibits Respiratory Syncytial Virus Entry and Spreading” (Antimicrobial Agents and Chemotherapy, 2017):
Bridge positions count the residues as written; N and C are the ends. Square brackets hold non-standard residues; d marks the D form. Peptide text beside a SMILES is read from it. S5 = C=CCCC[C@](C)(N)C(=O)O

Assays:
[1] = test system: RSV; conditions: cited from earlier work
Excerpt: The RSV fusion glycoprotein (F) is the focus of active research in the field of vaccines, neutralizing antibodies, and small molecules. […] RSV F is a type I fusion protein that is activated into a metastable prefusion state upon cleavage by host proteases. The prefusion state contains a hydrophobic fusion peptide, ...

[2] = all solvents tested
[3] = Proteolytic stability assay, trypsin; format: in vitro ADME; conditions: trypsin (isolated protease); 100 mM Tris-HCl pH 8.0, 10 mM CaCl2, 25°C; LC-MS of intact peptide, exponential decay fit; 3 experiments
Protocol: (§1) This is an important parameter to assess for the development of peptide therapeutics. Peptides 4bb, 4ca, and 4a, and the unstapled analog peptide 4, as well as both SAH-RSVFBD isomers, were treated with chymotrypsin or trypsin, and the samples were analyzed by LC/MS to quantify the reaction products over time. […] In comparison, both SAH-RSVFBD isomers were more susceptible to proteolytic degradation, with half-lives of approximately 7 h and 5 min against chymotrypsin and trypsin, respectively.
(§2) In vitro proteolytic degradation was measured via LC-MS using an Agilent Infinity 1280 UHPLC system coupled to an Agilent quadrupole time of flight (QTOF) 6530 instrument with an Agilent Jet Stream electrospray ionization (AJS ESI) source (all from Agilent Technologies, Waldbronn, Germany). Five microliters of digested sample was injected onto a C18 column (Zorbax Eclipse Plus RRHD, 1.8 μm, 2.1 by 100 mm; Agilent Technologies, Waldbronn, Germany) equilibrated with solvent A (5% acetonitrile, 0.2% formic acid) and eluted with a flow rate of 0.4 ml/min over a 5 to 95% gradient of solvent B (95% acetonitrile, 0.2% formic acid) in 5 min, followed by 1.5 min at 95% and 0.5 min posttime. The AJS ESI source was operated with a capillary voltage of 4,000 V and a nozzle voltage of 600 V with a drying gas temperature of 325°C and flow rate of 10 liters/min, nebulizing gas pressure of 20 lb/in^2, and a sheath gas temperature of 300°C and flow rate of 11 liters/min. Mass spectra were acquired in the positive-ion mode from 100 to 3,200 m/z at a rate of 1 scan per second in extended dynamic range (2 GHz) mode. The fragmentor, skimmer, and octopole RF voltages were set to 200, 60, and 750 V, respectively. Data were acquired and analyzed with the Agilent MassHunter Workstation (version B.05).
Peptide digestion was performed as follows: 10 μl of peptide at 0.29 mM in 50:50 acetonitrile-water was dissolved in 990 μl 100 mM Tris-HCl (pH 8.0) with 10 mM CaCl2. Following measurement of the undigested (t0) sample, 10 μl of chymotrypsin at 50 μg/ml in 100 mM Tris-HCl (pH 8.0) with 10 mM CaCl2 was added, and the sample was vortexed and placed immediately in the autosampler, set to 25°C. The level of intact peptide was quantified by serial injection over time. […] The value of the fit at t = 0 min was used to calculate the percentage of the intact peptide at each point as follows: Percent intact (t) = [Vol (t)/Volt0] × 100, where Vol is the total volume calculated using Find Compounds by Molecular Feature and Volt0 is the value of the fit at time t = 0. A plot of the intact peptide MFE peak area over time gave an exponential decay curve, from which the half-life was determined using MatLab […].

[4] = test system: rHRSV-mCherry in HEp-2 cells; assay: rHRSV-mCherry inhibition assay; format: cell-based, human respiratory syncytial virus; conditions: HEp-2 cells
Summary of the method: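 HEp-2 cells infected at MOI 0.2 with rHRSV-mCherry preincubated 15–20 min with serially diluted peptide, peptide kept in 2% FBS medium for 48 h at 37°C. Replication read as mCherry fluorescence (ex 580/em 620 nm), normalized to untreated infected cells; duplicates, curves fitted.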

[5] = test system: chymotrypsin; assay: Proteolytic stability assay, chymotrypsin; format: in vitro ADME; conditions: treated with chymotrypsin or trypsin, LC/MS
Protocol: as §1, §2
(§3) Peptide digestion was performed as follows: 10 μl of peptide at 0.29 mM in 50:50 acetonitrile-water was dissolved in 990 μl 100 mM Tris-HCl (pH 8.0) with 10 mM CaCl2. Following measurement of the undigested (t0) sample, 10 μl of chymotrypsin at 50 μg/ml in 100 mM Tris-HCl (pH 8.0) with 10 mM CaCl2 was added, and the sample was vortexed and placed immediately in the autosampler, set to 25°C. The level of intact peptide was quantified by serial injection over time. Integration of the intact peptide compound chromatogram was performed using the Agilent Molecular Feature Extraction (MFE) algorithm. The value of the fit at t = 0 min was used to calculate the percentage of the intact peptide at each point as follows: Percent intact (t) = [Vol (t)/Volt0] × 100, where Vol is the total volume calculated using Find Compounds by Molecular Feature and Volt0 is the value of the fit at time t = 0. A plot of the intact peptide MFE peak area over time gave an exponential decay curve, from which the half-life was determined using MatLab […].

[6] = Proteolytic stability assay, chymotrypsin; format: in vitro ADME; conditions: chymotrypsin (isolated protease); 10 μl peptide 0.29 mM in 990 μl 100 mM Tris-HCl pH 8.0, 10 mM CaCl2; 10 μl chymotrypsin 50 μg/ml; 25°C; LC-MS of intact peptide, exponential decay fit; 3 experiments
Protocol: as §1, §2, §3

[7] = test system: recombinant GFP-expressing RSV (strain A2) in A549 cells; format: cell-based, human respiratory syncytial virus; conditions: cellular RSV-eGFP assay, data not shown
Protocol: A549 cells were infected with a recombinant green fluorescent protein (GFP)-expressing RSV (strain A2) ([23]), and the inhibitory activity of the peptide was quantified by flow cytometry.
Each peptide was diluted 3 times by 2-fold serial dilutions. eGFP RSV virus at an MOI of 0.5 was used for the infection, and GFP-positive cells were counted by FACS analysis 24 h p.i. The GFP data were normalized to the fluorescence values observed with virus only and plotted as percent inhibition.
Serial 4-fold dilutions of inhibitors were mixed with eGFP-encoding RSV virus ([23]) with a volume of virus required to achieve approximately 50% of infection in medium containing 2% fetal calf serum. The resulting mixture was added to 24-well plates containing A549 cells. Cells were incubated for 2 h at 37°C, the medium was replaced, and cells were incubated for an additional 24 h. Cells were treated with 300 μl of trypsin for 10 min at 37°C, and the detached cells were diluted in 1 ml of culture medium. Following centrifugation at 1,700 rpm, the pellet was resuspended in 300 μl of PBS–1% fetal bovine serum (FBS) (vol/vol) and GFP-positive cells were counted by fluorescence-activated cell sorter (FACS) analysis. The GFP data were normalized to the fluorescence value observed with virus only. The resulting inhibition curves were fitted in Igor Pro as described above.

[8] = Far-UV circular dichroism, α-helical content; format: physicochemical; conditions: CD, 10 mM phosphate buffer pH 7.5, 50 μM peptide, 25°C
Protocol: The circular dichroism spectra were acquired on a Chirascan spectropolarimeter. The samples were prepared in 10 mM phosphate buffer, pH 7.5, at a peptide concentration of 50 μM. Data were recorded at 25°C by step scan from 180 nm to 260 nm in a 0.5-mm path length quartz cell using 1-nm wavelength increments and a response time of 1 s. The data were converted to per residue molar ellipticity units [θ] (degree per square centimeter per decimole per residue) and smoothed using the Igor Pro software. The percentage of helicity was calculated as described previously ([35]).

[9] = RSV-Cherry MOI 0.2, peptide and virus removed after infection and fresh peptide added, mCherry fluorescence 48 h p.i., at least twice in duplicate

| SMILES | half-life [3] | EC50 [4, 9] | half-life at 2.9 µM [6] | % Helicity ([8]; Table 2) | % Helicity ([8]; Table 3 (Ala scan)) | other results |
| --- | --- | --- | --- | --- | --- | --- |
| Cc1cn2nc([C@@H]3CCCCN3C(=O)c3cc(Cl)ccc3NS(C)(=O)=O)cc2nc1N1CC[C@H](N)C1 [GS-5806] |  |  |  |  |  | EC50 [1]: 0.4 nM |
| CC[C@H](C)[C@H](NC(=O)[C@H](Cc1ccccc1)NC(=O)[C@H](C)NC(=O)[C@H](CC(C)C)NC(=O)[C@H](CO)NC(=O)[C@H](CCC(N)=O)NC(=O)[C@H](CC(N)=O)NC(=O)[C@@H](NC(=O)[C@H](CCCCN)NC(=O)[C@H](CCC(=O)O)NC(=O)[C@H](CC(N)=O)NC(=O)[C@@H](NC(=O)[C@H](CCC(N)=O)NC(=O)[C@H](CO)NC(=O)[C@@H](NC(=O)[C@H](CCC(=O)O)NC(C)=O)[C@@H](C)CC)C(C)C)[C@@H](C)CC)C(=O)N[C@@H](CCCNC(=N)N)C(N)=O [Peptide 2] (Ac-EISQVNEKINQSLAFIR-NH2) |  |  |  |  |  | solubility [2]: insoluble in all solvents tested |
| CC[C@H](C)[C@H](NC(=O)[C@H](Cc1ccccc1)NC(=O)[C@H](C)NC(=O)[C@H](CC(C)C)NC(=O)[C@H](CO)NC(=O)[C@H](CCC(N)=O)NC(=O)[C@H](CC(N)=O)NC(=O)[C@@H](NC(=O)[C@H](CCCCN)NC(=O)[C@H](CCC(=O)O)NC(C)=O)[C@@H](C)CC)C(=O)N[C@@H](CCCNC(=N)N)C(=O)N[C@@H](CCCCN)C(=O)N[C@@H](CO)C(=O)N[C@@H](CC(=O)O)C(=O)N[C@@H](CCC(=O)O)C(=O)N[C@@H](CC(C)C)C(=O)N[C@@H](CC(C)C)C(=O)N[C@@H](Cc1c[nH]cn1)C(=O)N[C@@H](CC(N)=O)C(=O)N[C@H](C(N)=O)C(C)C [Peptide 4] (Ac-EKINQSLAFIRKSDELLHNV-NH2) | 4.8 min | > 50000 nM | 4.8 min |  |  | time to full degradation [5]: ≤ 10 min |
| CC[C@H](C)[C@H](NC(=O)[C@H](CCCCN)NC(=O)[C@H](CCC(=O)O)NC(C)=O)C(=O)N[C@@H](CC(N)=O)C(=O)N[C@@H](CCC(N)=O)C(=O)N[C@@H](CO)C(=O)N[C@@H](CC(C)C)C(=O)N[C@@]1(C)CCCC=CCCC[C@@](C)(C(=O)N[C@@H](CO)C(=O)N[C@@H](CC(=O)O)C(=O)N[C@@]2(C)CCCC=CCCC[C@@](C)(C(=O)N[C@H](C(N)=O)C(C)C)NC(=O)[C@H](Cc3c[nH]cn3)NC(=O)[C@H](CC(C)C)NC(=O)[C@H](CC(C)C)NC2=O)NC(=O)[C@H](CCCNC(=N)N)NC(=O)[C@H]([C@@H](C)CC)NC(=O)[C@H](Cc2ccccc2)NC1=O [Peptide 4a] (Ac-EKINQSL[S5]FIR[S5]SD[S5]LLH[S5]V-NH2; staple 8-12, 15-19) | 78 min |  | 4480 min | 23.5% | 64% | potency relative to hit peptide 3ac [7]: twice more potent |
| CC[C@H](C)[C@H](NC(=O)[C@H](CCCCN)NC(=O)[C@H](CCC(=O)O)NC(C)=O)C(=O)N[C@@]1(C)CCCC=CCCC[C@@](C)(C(=O)N[C@@H](Cc2ccccc2)C(=O)N[C@H](C(=O)N[C@@]2(C)CCCC=CCCC[C@@](C)(C(=O)N[C@@H](CC(C)C)C(=O)N[C@@H](CC(C)C)C(=O)N[C@@H](Cc3c[nH]cn3)C(=O)N[C@@H](CC(N)=O)C(=O)N[C@H](C(N)=O)C(C)C)NC(=O)[C@H](CC(=O)O)NC(=O)[C@H](CO)NC(=O)[C@H](CCCCN)NC2=O)[C@@H](C)CC)NC(=O)[C@H](CC(C)C)NC(=O)[C@H](CO)NC(=O)[C@H](CCC(N)=O)NC1=O [Peptide 4bb] (Ac-EKI[S5]QSL[S5]FI[S5]KSD[S5]LLHNV-NH2; staple 4-8, 11-15) | 18 min | 740 ± 270 nM | 3010 min | 48.1% | 53% | EC50 ([4]; Table 3 (Ala scan), rHRSV-mCherry MOI 0.2, 2-fold serial dilutions (11 dilutions), duplicate, ± SD of fit): 670 ± 70 nM |
| CC[C@H](C)[C@@H]1NC(=O)[C@H](CO)NC(=O)[C@](C)(NC(=O)[C@H](CC(=O)O)NC(=O)[C@H](Cc2ccccc2)NC(C)=O)CCCCCCC=CCCC[C@@](C)(C(=O)N[C@@H](CCCCN)C(=O)N[C@H](C(=O)N[C@@H](CC(N)=O)C(=O)N[C@@H](CCC(N)=O)C(=O)N[C@@H](CO)C(=O)N[C@@H](CC(C)C)C(=O)N[C@@H](C)C(=O)N[C@@H](Cc2ccccc2)C(=O)N[C@H](C(=O)N[C@]2(C)CCCCCCC=CCCC[C@@](C)(C(=O)N[C@@H](CC(N)=O)C(=O)N[C@H](C(=O)N[C@@H](CC(N)=O)C(=O)N[C@@H](C)C(=O)NCC(=O)N[C@@H](CCCCN)C(=O)N[C@@H](CO)C(=O)N[C@H](C(N)=O)[C@@H](C)O)C(C)C)NC(=O)[C@H](CC(C)C)NC(=O)[C@H](CC(C)C)NC(=O)[C@H](CCC(=O)O)NC(=O)[C@H](CC(=O)O)NC(=O)[C@H](CO)NC(=O)[C@H](CCCCN)NC2=O)[C@@H](C)CC)[C@@H](C)CC)NC(=O)[C@H](CC(N)=O)NC(=O)[C@H](C(C)C)NC(=O)[C@H](CCC(N)=O)NC(=O)[C@H](CO)NC1=O [RSV-SAHBD (E), reference compound] | 1.2 min |  | 390 min |  |  |  |
